Patent US20250034212A1, “PEPTIDE” (PEPTIDREAM INC., priority 2021, published 2025)
Starred links: 1 amine or outer side, 2 acyl side, 3 side chain; linkers in the order of their positions; H or OH if unused. Positions of bridges follow the written chain, without caps; N, C: chain ends. Non-standard residues stand in square brackets, D forms with d. Residues, ends and D or L forms follow the SMILES beside them. Groups on a side chain read outwards from the residue. *: point of attachment. KCOpipzaa = N6-(4-(carboxymethyl)piperazine-1-carbonyl)-L-lysine, O=C(NCCCC[C@H](N[*:1])C(=O)[*:2])N1CCN(CC(=O)[*:3])CC1; CH3O(CH2CH2O)7C2H4CO = COCCOCCOCCOCCOCCOCCOCCOCCC(=O)*; Piperazinyl(4-CH2COOH) = O=C(O)CN1CCN(*)CC1; 1Nal = N[C@@H](Cc1cccc2ccccc12)C(=O)O; Gly(NCH2CH2Ph) = O=C(O)CNCCc1ccccc1; 4Pal = N[C@@H](Cc1ccncc1)C(=O)O; CO = O=C([*:1])[*:2]

Legend:
recombinant human TGF-β1 [1] = biological target: T1, recombinant human TGF-β1 (Homo sapiens, UniProt P01137); experiment: SPR intermolecular interaction test, TGF-β1 immobilized on CM3 sensor chip (Biacore T200); assay type: binding; settings: Single Cycle Kinetics, human TGF-β1
T1 construct: purchased R&D systems
Procedure: In this Example, (1) the activity of binding to TGF-β for various peptides consisting of the amino acid sequences set forth in SEQ ID NOs: 2-33 synthesized in Examples 1 to 5 and 7 was evaluated. (2) The activity and selectivity of binding of the peptide consisting of the amino acid sequence set forth in SEQ ID NO: 13 synthesized in Example 2 against two isoforms of TGF-β (TGF-β1 and β2) were checked. For this purpose, the intermolecular interaction of each peptide against TGF-β was tested by surface plasmon resonance (SPR) in the method described below. Specific test methods are described below.
A CM3 sensor chip (Global Life Science Technologies Japan Co., Ltd.) was inserted into a BiacoreT200 (Global Life Science Technologies Japan Co., Ltd.). Three priming runs were performed using running buffer: HBS-EP+ (Global Life Science Technologies Japan Co., Ltd.). The system was then equilibrated at a flow rate of 30 μL/min.
Subsequently, 50 μL of 60 mM EDC solution (Global Life Science Technologies Japan Co., Ltd.) and 50 μL of 650 mM NHS solution (Global Life Science Technologies Japan Co., Ltd.) were mixed. Next, the reaction was carried out at a flow rate of 10 μL/min for 420 seconds. Then, 150 μL of 0.2 μM TGF-β solution diluted in 10 mM acetic acid solution (pH 5.0) was prepared and reacted at a flow rate of 10 μL/min for 420 seconds to immobilize TGF-β on the CM3 sensor chip. TGF-β was human-derived TGF-β1 or β2 (recombinant human TGF-β1, 2) and was obtained from R&D systems. After immobilization, capping was performed by reacting with 1.0 M ethanolamine aqueous solution (Global Life Science Technologies Japan Co., Ltd.) at a flow rate of […] for 420 seconds.
A liquid prepared by dissolving each peptide at 10 mM in DMSO solution was diluted with running buffer to prepare a peptide-dissolved solution at a final concentration of 10 μM. Subsequently, 50 nM, 25 nM, 12.5 nM, 5 nM, and 2.5 nM peptide solutions were prepared. Using the above samples, the kinetics of each peptide against TGF-β was obtained by SPR measurement.
The kinetics evaluation model was Single Cycle Kinetics, and curve fitting was performed using Biacore T200 Evaluation Software Version 3.0 (Global Life Science Technologies Japan Co., Ltd.). The binding of various peptides to TGF-β was evaluated by performing least-squares curve fitting on the obtained sensorgram to calculate the KD value.

recombinant human TGF-β1 [2] = biological target: T1, recombinant human TGF-β1; experiment: SBE reporter assay in SBE reporter-HEK293 cells, TGF-β1 stimulation; assay type: cell-based; settings: for inhibition at 62 pM: peptide 0.062 nM; for inhibition at 0.000185 µM: peptide 0.185 nM; for inhibition at 0.00056 µM: peptide 0.56 nM; for inhibition at 0.0017 µM: peptide 1.7 nM; for inhibition at 0.005 µM: peptide 5.0 nM; for inhibition at 0.015 µM: peptide 15.0 nM
Summary of the method: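 SBE luciferase reporter HEK293 cells in 0.5% FBS medium, preincubated 20 min with peptide, then stimulated 18 h with 0.13 nM recombinant human TGF-β1. Luminescence read; inhibition scaled with maximal TGF-β signal as 0% and unstimulated as 100%.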

recombinant human TGF-β2 = biological target: T2, recombinant human TGF-β2 (Homo sapiens, UniProt P61812); experiment: SBE reporter assay in SBE reporter-HEK293 cells, TGF-β2 stimulation; assay type: cell-based; settings: FIG. 1
T2 construct: purchased R&D systems
T2 sequence (P61812 303-414 limits assumed): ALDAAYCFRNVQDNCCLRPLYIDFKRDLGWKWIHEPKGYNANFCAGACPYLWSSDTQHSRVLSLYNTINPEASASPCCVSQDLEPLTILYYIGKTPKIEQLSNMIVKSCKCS
Procedure: In addition, the selectivity of each peptide for TGF-β isoforms (TGF-β1 and β2) is checked. For this purpose, the inhibitory activity against TGF-β1 and TGF-β2 was evaluated using the peptide consisting of the amino acid sequence set forth in SEQ ID NO: 13 synthesized in Example 2.
SBE reporter-HEK293 cells were cultured in E-MEM (Wako) containing 10% FBS (Sigma). The cells were detached using Accutase (Innovative Cell Technologies), suspended in E-MEM containing 0.5% FBS, seeded onto a 96-well plate(s) at a concentration of 45,000 cells per well, and cultured overnight. The next day, the peptide was added and allowed to stand for 20 min, and recombinant human TGF-β1 (R&D systems) or recombinant human TGF-β2 (R&D systems) was then added at 0.13 nM and cultured for 18 hours.
Thereafter, luciferase assay ONE-Glo reagent was added to each well and the plate was shaken for 5 min. A SpectraMax Paradigm multimode microplate reader (Molecular Devices) was then used for signal detection. The obtained signals were analyzed by GraphPad Prism. The inhibitory activity of the peptide was calculated while the maximum signal induced by TGF-β was set to 0% inhibition and no stimulation was set to 100% inhibition.

[3] = biological target: T3, recombinant human TGF-β1 (R&D systems) (human, UniProt P01137 279-390); experiment: cell-based or functional assay
[4] = biological target: T4, recombinant human TGF-β2 (R&D systems) (human, UniProt P61812 303-414); experiment: SPR, TGF-β2 immobilised, single cycle kinetics; target TGF-β2, not TGF-β1
T4 construct: Bought protein
T4 sequence (looked up): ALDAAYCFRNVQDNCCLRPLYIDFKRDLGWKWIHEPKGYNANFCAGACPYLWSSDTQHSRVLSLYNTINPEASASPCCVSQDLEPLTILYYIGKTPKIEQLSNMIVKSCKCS

[5] = biological target: T3, recombinant human TGF-β1 (R&D systems); experiment: cell-based or functional assay; remark: listed apart in the source
[6] = biological target: T3, recombinant human TGF-β1 (R&D systems); experiment: cell-based or functional assay; remark: listed apart in the source
[7] = biological target: T4, recombinant human TGF-β2 (R&D systems); experiment: cell-based or functional assay

T1 sequence (P01137 279-390 limits assumed): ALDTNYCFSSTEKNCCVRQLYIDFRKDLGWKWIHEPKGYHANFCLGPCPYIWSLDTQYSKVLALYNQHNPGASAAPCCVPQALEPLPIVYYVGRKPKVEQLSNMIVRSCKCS
T3 sequence (P01137 279-390 limits assumed): as above

CC(C)[C@@H]1NC(=O)CN(CCc2ccccc2)C(=O)[C@H](CC(=O)O)NC(=O)[C@H](CC(=O)O)NC(=O)[C@H](Cc2ccncc2)NC(=O)[C@H](C(C)C)NC(=O)[C@H](CC(N)=O)NC(=O)[C@H](C(C)C)NC(=O)[C@H](C(C)C)NC(=O)[C@H](Cc2cccc3ccccc23)NC(=O)[C@H](Cc2ccccc2)NC(=O)CSC[C@@H](C(=O)NCC(N)=O)NC(=O)[C@H](CCCCNC(=O)N2CCN(CC(=O)O)CC2)NC(=O)[C@H](Cc2c[nH]cn2)NC(=O)[C@H](Cc2ccc(O)cc2)NC(=O)[C@H](Cc2cccc3ccccc23)NC1=O [TGFb1_012] ({CH2CO}-F[1Nal]VVNV[4Pal]DD[Gly(NCH2CH2Ph)]V[1Nal]YHK([CO-Piperazinyl(4-CH2COOH)])CG-NH2; thioether N-16)
Kd (recombinant human TGF-β1 [1]): 0.86 nM | TGF-β1 antagonist / inhibitory activity (in words) (recombinant human TGF-β1 [2]; SBE reporter assay, FIG. 1 and Tables 2 and 3): inhibits not only TGF-β1 but also TGF-β2 | inhibition at 62 pM (recombinant human TGF-β1 [2]; TGF-β1 0.13 nM, 18 hours): 4.18% | inhibition at 75 pM (recombinant human TGF-β1 [2]; peptide 0.075 nM, TGF-β1 0.13 nM, 18 hours): 10.1% | inhibition at 0.000185 µM (recombinant human TGF-β1 [2]; TGF-β1 0.13 nM, 18 hours): 19.8% | inhibition at 0.00056 µM (recombinant human TGF-β1 [2]; TGF-β1 0.13 nM, 18 hours): 48.4% | inhibition at 0.00075 µM (recombinant human TGF-β1 [2]; peptide 0.75 nM, TGF-β1 0.13 nM, 18 hours): 65.2% | inhibition at 0.0017 µM (recombinant human TGF-β1 [2]; TGF-β1 0.13 nM, 18 hours): 80.9% | inhibition at 0.005 µM (recombinant human TGF-β1 [2]; TGF-β1 0.13 nM, 18 hours): 94.4% | inhibition at 0.0075 µM (recombinant human TGF-β1 [2]; peptide 7.5 nM, TGF-β1 0.13 nM, 18 hours): 96% | inhibition at 0.015 µM (recombinant human TGF-β1 [2]; TGF-β1 0.13 nM, 18 hours): 98.7% | inhibition at 0.075 µM (recombinant human TGF-β1 [2]; peptide 75.0 nM, TGF-β1 0.13 nM, 18 hours): 99.5% | inhibitory activity against TGF-β2 (in words) (recombinant human TGF-β2): inhibits not only TGF-β1 but also TGF-β2

COCCOCCOCCOCCOCCOCCOCCOCCC(=O)NCCCC[C@H](NC(=O)CNC(=O)[C@@H]1CSCC(=O)N[C@@H](Cc2ccccc2)C(=O)N[C@@H](Cc2cccc3ccccc23)C(=O)N[C@@H](C(C)C)C(=O)N[C@@H](C(C)C)C(=O)N[C@@H](CC(N)=O)C(=O)N[C@@H](C(C)C)C(=O)N[C@@H](Cc2ccncc2)C(=O)N[C@@H](CC(=O)O)C(=O)N[C@@H](CC(=O)O)C(=O)N(CCc2ccccc2)CC(=O)N[C@@H](C(C)C)C(=O)N[C@@H](Cc2cccc3ccccc23)C(=O)N[C@@H](Cc2ccc(O)cc2)C(=O)N[C@@H](Cc2c[nH]cn2)C(=O)N[C@@H](CCCCNC(=O)N2CCN(CC(=O)O)CC2)C(=O)N1)C(N)=O [TGFb1_031] ({CH2CO}-F[1Nal]VVNV[4Pal]DD[Gly(NCH2CH2Ph)]V[1Nal]YHK([CO-Piperazinyl(4-CH2COOH)])CGK(CH3O(CH2CH2O)7C2H4CO)-NH2; thioether N-16)
Kd (recombinant human TGF-β1 [1]): 0.91 nM | inhibition at 62 pM (recombinant human TGF-β1 [2]; TGF-β1 0.13 nM, 18 hours): 9.29% | inhibition at 0.000185 µM (recombinant human TGF-β1 [2]; TGF-β1 0.13 nM, 18 hours): 20.1% | inhibition at 0.00056 µM (recombinant human TGF-β1 [2]; TGF-β1 0.13 nM, 18 hours): 51.9% | inhibition at 0.0017 µM (recombinant human TGF-β1 [2]; TGF-β1 0.13 nM, 18 hours): 84.9% | inhibition at 0.005 µM (recombinant human TGF-β1 [2]; TGF-β1 0.13 nM, 18 hours): 96.7% | inhibition at 0.015 µM (recombinant human TGF-β1 [2]; TGF-β1 0.13 nM, 18 hours): 99.1%

B1: TGFb1_012 (peptide)
peptide: {CH2CO}-F[1Nal]VVNV[4Pal]DD[Gly(NCH2CH2Ph)]V[1Nal]YH[KCOpipzaa]CG-NH2
modifications: thioether N-16
SMILES: CC(C)[C@@H]1NC(=O)CN(CCc2ccccc2)C(=O)[C@H](CC(=O)O)NC(=O)[C@H](CC(=O)O)NC(=O)[C@H](Cc2ccncc2)NC(=O)[C@H](C(C)C)NC(=O)[C@H](CC(N)=O)NC(=O)[C@H](C(C)C)NC(=O)[C@H](C(C)C)NC(=O)[C@H](Cc2cccc3ccccc23)NC(=O)[C@H](Cc2ccccc2)NC(=O)CSC[C@@H](C(=O)NCC(N)=O)NC(=O)[C@H](CCCCNC(=O)N2CCN(CC(=O)O)CC2)NC(=O)[C@H](Cc2c[nH]cn2)NC(=O)[C@H](Cc2ccc(O)cc2)NC(=O)[C@H](Cc2cccc3ccccc23)NC1=O
notes: cyclic peptide; C-terminal G is a linker; also called TGF-β1_012
SBE reporter % inhibition, peptide 0.062 nM [3]: 4.18% | SBE reporter % inhibition, peptide 0.185 nM [3]: 19.8% | SBE reporter % inhibition, peptide 0.56 nM [3]: 48.4% | SBE reporter % inhibition, peptide 1.7 nM [3]: 80.9% | SBE reporter % inhibition, peptide 5.0 nM [3]: 94.4% | SBE reporter % inhibition, peptide 15.0 nM [3]: 98.7% | Kd [4]: 2 nM | SBE reporter % inhibition, peptide 0.075 nM [5]: 10.1% | SBE reporter % inhibition, peptide 0.75 nM [5]: 65.2% | SBE reporter % inhibition, peptide 7.5 nM [5]: 96% | SBE reporter % inhibition, peptide 75.0 nM [5]: 99.5% | IC50 (read off the curve) (SBE reporter assay in SBE reporter-HEK293 cells; TGF-β1 at 0.13 nM) [6]: ~0.7 nM | IC50 (read off the curve) (SBE reporter assay in SBE reporter-HEK293 cells; TGF-β2 at 0.13 nM) [7]: ~6 nM
